Reference: EP0902088A2, “Peptides with antiproliferative properties” (Radulescu, Razvan T., priority 1996, dated 1999)
Entries after “also recorded” stand apart in the source; their conditions may differ.

What was measured:
MCF-7-Zellen = experiment: Cell cycle analysis by FACS in MCF-7 breast carcinoma cells; type: cell-based, human
From the text: Die eine Versuchsanordnung beinhaltet Versuche mit der humanen intaktes Retinoblastomprotein enthaltenden Mammakarzinom-Zell-Linie MCF-7 bzw. der humanen defektes Retinoblastomprotein enthaltenden Osteosarkom-Zell-Linie SAOS-2. Man sät die Zellen zuerst in 12-well-Platten 100.000 (= Hunderttausend) Zellen/-well/ml RPMI oder DMEM/10% FCS) aus, läßt sie 24 Stunden adhärieren, […], und stimuliert sie dann entweder mit 10% FCS oder 10^-8 M IGF-1 oder 10^-6 M Insulin für 24 Stunden, wobei der Effekt der jeweils zugegebenen Peptide auf die jeweilige Stimulation, die ein Maß für die Zellteilungsrate ist, untersucht wird. Die Kontrollgruppe (G0/G1-synchronisierte Zellen) wird zum Zeitpunkt 0 nach der dreitägigen Hungerphase fixiert, die restlichen Zellen (+/- Peptid) werden nach 24 Stunden fixiert. Daraufhin werden die Zellen zwecks Zellzyklusanalyse im FACS analysiert. Analoge Methoden finden sich beispielsweise bei R. Fahraeus et al., Current Biology, 1996, Vol. 6, No. 1, pp 84-91 sowie bei L. Zhu et al., Genes & Development, 1993, Vol. 7, pp. 1111-1125.

SAOS-2-Zellen = experiment: Cell cycle analysis by FACS in SAOS-2 osteosarcoma cells; type: cell-based, human
From the text: Die eine Versuchsanordnung beinhaltet Versuche mit der humanen intaktes Retinoblastomprotein enthaltenden Mammakarzinom-Zell-Linie MCF-7 bzw. der humanen defektes Retinoblastomprotein enthaltenden Osteosarkom-Zell-Linie SAOS-2. Man sät die Zellen zuerst in 12-well-Platten 100.000 (= Hunderttausend) Zellen/-well/ml RPMI oder DMEM/10% FCS) aus, läßt sie 24 Stunden adhärieren, hungert sie anschließend 3 Tage in DMEM ohne FCS mit dem Zweck, die Zellen in der G0/G1-Phase zu synchronisieren, und stimuliert sie dann entweder mit 10% FCS oder 10^-8 M IGF-1 oder 10^-6 M Insulin für 24 Stunden, wobei der Effekt der jeweils zugegebenen Peptide auf die jeweilige Stimulation, die ein Maß für die Zellteilungsrate ist, untersucht wird. Die Kontrollgruppe (G0/G1-synchronisierte Zellen) wird zum Zeitpunkt 0 nach der dreitägigen Hungerphase fixiert, die restlichen Zellen (+/- Peptid) werden nach 24 Stunden fixiert. Daraufhin werden die Zellen zwecks Zellzyklusanalyse im FACS analysiert. Analoge Methoden finden sich beispielsweise bei R. Fahraeus et al., Current Biology, 1996, Vol. 6, No. 1, pp 84-91 sowie bei L. Zhu et al., Genes & Development, 1993, Vol. 7, pp. 1111-1125.

K562-Zellen = experiment: Cytotoxicity by trypan blue counting in K562 leukaemia cells; type: cell-based; conditions: asynchronous K562 in RPMI with 10 % FCS, peptide 10^-5M, several time points
From the text: Fig. 13 zeigt, daß der zytotoxische Effekt des erfindungsgemäßen Peptids P3 [10^-5M] auf asynchrone K562-Zellen, die in RPMI-Zellkulturmedium mit 10 % FCS inkubiert wurden, zeitabhängig ist. Die Ergebnisse wurden aufgetragen als lebende mit P3 behandelte Zellen als Prozent der lebenden mit P3 nicht behandelten Zellen. Die Zahl der lebenden Zellen wurde ermittelt, indem man mindestens 200 Zellen mit der Trypanblaumethode zu jedem angegebenen Zeitpunkt auszählte.
(§1) Die zweite Versuchsanordnung betrifft die Leukämie-Zell-Linien K562 und CCRF-CEM und CCRF-CEM/ACT400. Hierbei wurden jeweils 100.000 asynchrone Zellen/well/ml RPMI/10% FCS für 48 Stunden mit den jeweiligen Peptiden in 6-well-Platten inkubiert. Als Readout gilt die Anzahl der mit Hilfe der Trypanblaufärbung (L.D. Attardi et al., The EMBO Journal, 1996, Vol. 15, No. 14, pp. 3693-3701 und M.K. Reeder & H.C. Isom, Cell Growth & Differentiation, 1996, Vol. 7, pp. 449-460) nach 48 Stunden Inkubationszeit festgestellten toten Zellen/200 ausgezählte Zellen. Je mehr tote Zellen, desto zytotoxischer das Peptid und damit umso effektiver.

CCRF-CEMsensitiv = experiment: Cytotoxicity by trypan blue counting in CCRF-CEM (sensitive) leukaemia cells; type: cell-based; conditions: asynchronous CCRF-CEM (sensitive) in RPMI with 10 % FCS; peptide 10^-5
From the text: as §1

[1] = tested on: CCRF-CEM/ACT 400resistent-Zellen; experiment: Cytotoxicity by trypan blue counting in CCRF-CEM/ACT 400 (resistant) leukaemia cells; type: cell-based; conditions: asynchronous CCRF-CEM/ACT 400 (resistant) in RPMI with 10 % FCS; peptide 10^-5
From the text: as §1

[2] = tested on: normale humane mononukleäre Zellen des peripheren Blutes; experiment: Effect on normal peripheral blood mononuclear cells; type: cell-based, human; conditions: peptide 10^-5, 24 h incubation
From the text: Fig. 15 zeigt, daß das erfindungsgemäße Peptid P3 [10^-5] keinen Effekt auf normale humane mononukleäre Zellen des peripheren Blutes hat, unabhängig davon, ob diese sich in einem ruhenden (a) oder aktivierten (b) Zustand befinden. […] Die Inkubation der Zellen mit P3 erfolgte für einen Zeitraum von 24 Stunden.

[3] = G0/G1-synchronised MCF-7 cells, serum-free, peptide 10^-5M
[4] = MCF-7 stimulated with EGF 10^-8, peptide 10^-5M
[5] = MCF-7 stimulated with IGF-1 10^-8M, peptide 10^-5M
[6] = MCF-7 stimulated with Östradiol (E2) 10^-9M, peptide 10^-5M
[7] = asynchronous MCF-7 in DMEM with 10 % FCS, peptide 10^-5M
[8] = G0/G1-synchronised SAOS-2 cells, serum-free, peptide 10^-5M
[9] = SAOS-2 stimulated with 10 % FS, peptide 10^-5M
[10] = MCF-7 stimulated with Insulin 10^-6M, peptide 10^-5M
[11] = SAOS-2 stimulated with 10 % FCS, peptide 5 x 10^-5M

CC(C)C[C@@H](N)C(=O)N[C@H](Cc1ccccc1)C(=O)N[C@H](Cc1ccc(O)cc1)C(=O)N[C@H](CCCCN)C(=O)N[C@H](CCCCN)C(=O)N[C@@H](C(=O)NCC(=O)NCC(=O)NCC(=O)NCCCC[C@H](NC(=O)CNC(=O)CNC(=O)CNC(=O)[C@H](NC(=O)[C@@H](CCCCN)NC(=O)[C@@H](CCCCN)NC(=O)[C@@H](Cc1ccc(O)cc1)NC(=O)[C@@H](Cc1ccccc1)NC(=O)[C@H](N)CC(C)C)C(C)C)C(=O)N[C@H](CCCNC(=N)N)C(=O)NCC(=O)NCCCC[C@H](NC(=O)CNC(=O)[C@@H](CCCNC(=N)N)NC(=O)[C@H](CCCCNC(=O)CNC(=O)CNC(=O)CNC(=O)[C@H](NC(=O)[C@@H](CCCCN)NC(=O)[C@@H](CCCCN)NC(=O)[C@@H](Cc1ccc(O)cc1)NC(=O)[C@@H](Cc1ccccc1)NC(=O)[C@H](N)CC(C)C)C(C)C)NC(=O)CNC(=O)CNC(=O)CNC(=O)[C@H](NC(=O)[C@@H](CCCCN)NC(=O)[C@@H](CCCCN)NC(=O)[C@@H](Cc1ccc(O)cc1)NC(=O)[C@@H](Cc1ccccc1)NC(=O)[C@H](N)CC(C)C)C(C)C)C(=O)NCC(=O)O)C(C)C (racemic) [P3, NH2-[dL-dF-dY-dK-dK-dV-GGG]4-[lK-dR-G]2-lK-G-COOH]
G1-Phase (MCF-7-Zellen; [3]): vermindert | Morphologie der behandelten Zellen (MCF-7-Zellen; [3]): entspricht der apoptotischer Zellen | S-Phase (MCF-7-Zellen; [3]): erhöht | G1-Phase (MCF-7-Zellen; [4]): Zunahme | G2-Phase (MCF-7-Zellen; [4]): Zunahme | Morphologie der behandelten Zellen (MCF-7-Zellen; [4]): entspricht der apoptotischer Zellen | S-Phase (MCF-7-Zellen; [4]): Abnahme | Morphologie der behandelten Zellen (MCF-7-Zellen; MCF-7 stimulated with IGF-1 10^-8M, peptide 5 x 10^-6M): entspricht jeweils der apoptotischer Zellen | G1-Phase (MCF-7-Zellen; [5]): Zunahme | G2/M-Phase (MCF-7-Zellen; [5]): Zunahme | Morphologie der behandelten Zellen (MCF-7-Zellen; [5]): entspricht jeweils der apoptotischer Zellen | S-Phase (MCF-7-Zellen; [5]): Abnahme | durch IGF-1 [10^-8M] bedingte Fortschreiten des Zellzyklus (MCF-7-Zellen; MCF-7 stimulated with IGF-1 10^-8M, several peptide concentrations (Fig. 7)): in einer konzentrationsabhängigen Weise blockiert | G1-Phase (MCF-7-Zellen; [6]): Zunahme | G2-Phase (MCF-7-Zellen; [6]): Zunahme | Morphologie der behandelten Zellen (MCF-7-Zellen; [6]): entspricht der apoptotischer Zellen | S-Phase (MCF-7-Zellen; [6]): Abnahme | G1-Phase (MCF-7-Zellen; [7]): vermindert | Morphologie der behandelten Zellen (MCF-7-Zellen; [7]): entspricht der apoptotischer Zellen | S-Phase (MCF-7-Zellen; [7]): erhöht | G1-Phase (SAOS-2-Zellen; [8]): vermindert | G2-Phase (SAOS-2-Zellen; [8]): erhöht | Morphologie der behandelten Zellen (SAOS-2-Zellen; [8]): entspricht der apoptotischer Zellen | S-Phase (SAOS-2-Zellen; [8]): erhöht | G1-Phase (SAOS-2-Zellen; [9]): Zunahme | Morphologie der behandelten Zellen (SAOS-2-Zellen; [9]): entspricht der apoptotischer Zellen | S-Phase (SAOS-2-Zellen; [9]): Abnahme | zytotoxische Effekt (lebende mit P3 behandelte Zellen als Prozent der lebenden mit P3 nicht behandelten Zellen) (K562-Zellen): zeitabhängig | zytotoxischer Effekt (CCRF-CEMsensitiv): zytotoxisch | zytotoxischer Effekt [1]: zytotoxisch | Effekt auf normale humane mononukleäre Zellen des peripheren Blutes ([2]; activated state (b)): keinen Effekt | morphologische Veränderungen ([2]; resting or activated cells): keine morphologischen Veränderungen | Effekt auf normale humane mononukleäre Zellen des peripheren Blutes ([2]; resting state (a)): keinen Effekt

CC(C)C[C@@H](NC(=O)[C@H](NC(=O)[C@H](N)CCCCN)C(C)C)C(=O)N[C@H](Cc1ccc(O)cc1)C(=O)N[C@H](Cc1ccccc1)C(=O)N[C@H](CCCCN)C(=O)NCC(=O)NCC(=O)NCC(=O)NCCCC[C@H](NC(=O)CNC(=O)CNC(=O)CNC(=O)[C@@H](CCCCN)NC(=O)[C@@H](Cc1ccccc1)NC(=O)[C@@H](Cc1ccc(O)cc1)NC(=O)[C@@H](CC(C)C)NC(=O)[C@H](NC(=O)[C@H](N)CCCCN)C(C)C)C(=O)N[C@H](CCCNC(=N)N)C(=O)NCC(=O)NCCCC[C@H](NC(=O)CNC(=O)[C@@H](CCCNC(=N)N)NC(=O)[C@H](CCCCNC(=O)CNC(=O)CNC(=O)CNC(=O)[C@@H](CCCCN)NC(=O)[C@@H](Cc1ccccc1)NC(=O)[C@@H](Cc1ccc(O)cc1)NC(=O)[C@@H](CC(C)C)NC(=O)[C@H](NC(=O)[C@H](N)CCCCN)C(C)C)NC(=O)CNC(=O)CNC(=O)CNC(=O)[C@@H](CCCCN)NC(=O)[C@@H](Cc1ccccc1)NC(=O)[C@@H](Cc1ccc(O)cc1)NC(=O)[C@@H](CC(C)C)NC(=O)[C@H](NC(=O)[C@H](N)CCCCN)C(C)C)C(=O)NCC(=O)O (racemic) [P7s, NH2-[dK-dV-dL-dY-dF-dK-GGG ]4-[lK-dR-G]2-lK-G-COOH]
G1-Phase (MCF-7-Zellen; [5]): Zunahme | G2/M-Phase (MCF-7-Zellen; [5]): Zunahme | Morphologie der behandelten Zellen (MCF-7-Zellen; [5]): entspricht der apoptotischer Zellen | S-Phase (MCF-7-Zellen; [5]): Abnahme

CC[C@H](C)[C@H](NC(=O)[C@H](CCCCN)NC(=O)[C@@H](NC(=O)[C@H](CCC(N)=O)NC(=O)[C@H](CCCNC(=N)N)NC(=O)[C@@H](NC(=O)[C@H](CCCCN)NC(=O)[C@H](CCCCN)NC(=O)[C@H](Cc1ccc(O)cc1)NC(=O)[C@H](Cc1ccccc1)NC(=O)[C@@H](N)CC(C)C)C(C)C)[C@@H](C)CC)C(=O)N[C@@H](Cc1c[nH]c2ccccc12)C(=O)N[C@@H](Cc1ccccc1)C(=O)N[C@@H](CCC(N)=O)C(=O)N[C@@H](CC(N)=O)C(=O)N[C@@H](CCCNC(=N)N)C(=O)N[C@@H](CCCNC(=N)N)C(=O)N[C@@H](CCSC)C(=O)N[C@@H](CCCCN)C(=O)N[C@@H](Cc1c[nH]c2ccccc12)C(=O)N[C@@H](CCCCN)C(=O)N[C@@H](CCCCN)C(=O)O [P6, NH2-LFYKKVRQIKIWFQNRRMKWKK-COOH]
G1-Phase (MCF-7-Zellen; [3]): vermindert | Morphologie der behandelten Zellen (MCF-7-Zellen; [3]): entspricht der apoptotischer Zellen | S-Phase (MCF-7-Zellen; [3]): steigert | G1-Phase (MCF-7-Zellen; [5]): Zunahme | Morphologie der behandelten Zellen (MCF-7-Zellen; [5]): entspricht der apoptotischer Zellen | S-Phase (MCF-7-Zellen; [5]): Abnahme; also recorded: vermindern | S-Phase (MCF-7-Zellen; [10]): vermindern | G1-Phase (SAOS-2-Zellen; [11]): Zunahme | S-Phase (SAOS-2-Zellen; [11]): Abnahme

H-LFYKKVPKKKRKV-OH [P5, NH2-L-F-Y-K-K-V-P-K-K-K-R-K-V-COOH]
G1-Phase (MCF-7-Zellen; [3]): vermindert | S-Phase (MCF-7-Zellen; [3]): steigert | S-Phase (MCF-7-Zellen; [5]): vermindern | S-Phase (MCF-7-Zellen; [10]): vermindern | G1-Phase (SAOS-2-Zellen; [11]): Zunahme | S-Phase (SAOS-2-Zellen; [11]): Abnahme

NH2-KVLYFKRQIKIWFQNRRMKWKK-COOH (H-KVLYFKRQIKIWFQNRRMKWKK-OH) [P8]
G1-Phase (MCF-7-Zellen; [5]): Zunahme | G2/M-Phase (MCF-7-Zellen; [5]): Zunahme | Morphologie der behandelten Zellen (MCF-7-Zellen; [5]): entspricht der apoptotischer Zellen | S-Phase (MCF-7-Zellen; [5]): Abnahme

Penetratin [reference compound]
S-Phase (MCF-7-Zellen; [5]): keinen Effekt | S-Phase (MCF-7-Zellen; [10]): keinen Effekt | Bremsen der Zellzyklusprogression von SAOS-2-Zellen (SAOS-2-Zellen; Tab 2, SAOS-2 stimulated with 10 % FCS): nicht
